Source: patent US20070037833A1, “Compositions and methods for inhibiting neurodegeneration” (priority 2005, published 2007)
Where “and” joins values, the source holds several entries; their conditions need not be identical. Equal entries are not always repeated. Entries after “also recorded” stand apart in the source; their conditions may differ.

Key:
[1] = system: motor neurons in embryonic rat spinal cord cultures; assay: Excitotoxicity assay (100 μM kainic acid) in mixed spinal cord cultures; type: cell-based; settings: for excitotoxic motor neuron death: drug for 4 days (added 4 and 2 days) prior to 100 μM kainic acid 1 h, SMI-32(+) motor neurons counted 24 h later; for % of motor neurons killed (cell death) after excitotoxic insult: 4 day pre-treatment prior to 100 μM kainic acid
Method: Unless otherwise specified, BDNF was added to all cultures.
Many previous in vitro investigations have identified motor neurons in mixed spinal cord cell culture by immunostaining for non-phosphorylated neurofilaments (or peripherin) and restricting analysis to cells with a soma diameter of 25 μm or greater (Carriedo et al., 2000; Hu and Kalb, 2003). We wanted to confirm the validity of this approach using an independent method for determining whether a given cell is a motor neuron. To specifically identify motor neurons in our cultures we purified these cells by metrizamide gradient and immunopanning techniques (Henderson et al., 1993; Fryer et al., 1999), live-labeled them with CM-DiI, and added these fluorescently-tagged, bona fide motor neurons to mixed cell cultures at the time of initial plating. All CM-DiI labeled cells stained for motor neurons markers such as non-phosphorylated neurofilament H (using antibody, SMI-32), peripherin, choline acetyl transferase (ChAT) and islet ½ (FIG. 1, panel a.). We then subjected spinal cord cultures to an excitotoxic insult and determined motor neuron survival using multiple methods for identifying motor neurons. […] Since all SMI-32 (+) cells with cell body diameter of 25 μm or greater were CM-DiI (+) and all CM-DiI (+) cells were SMI-32 (+), for the remainder of the studies herein, we could confidently study motor neuron death in vitro by counting SMI-32 (+) cells with a cell body diameter of 25 μm or greater.

[2] = system: motor neurons expressing G85R SOD; assay: Motor neuron death from HSV-expressed mutant SOD in spinal cord cultures; type: cell-based, rat; settings: 6 days post-infection; treatment daily or every other day
Source text: (§1) Various cDNAs were cloned into the PrpUC amplicon plasmid and were used to generate recombinant HSV as previously described (Neve et al., 1997). The titer of viruses used in these studies were routinely 3-5×10^7 plaque-forming units/ml. The cDNA for wild type/mutant SOD and wild type/mutant p150^glued were gifts of D. Borchelt and E. Holzbaur, respectively. The K295R mutant version of chick src was a gift of J. Brugge.
(§2) Mutations in superoxide dismutase (SOD) or the p150^glued subunit of dynactin are known to account for a familial form of ALS in a subpopulation of individuals (Rosen, 1993; Puls et al., 2003; Bruijn et al., 2004). We inquired whether expression the mutant forms of SOD or p150^glued caused motor neuron death in vitro and if Trk antagonism was neuroprotective. Recombinant herpes simplex viruses (HSVs) were generated that expressed wild type or mutant form of SOD (G85R) and wild type or mutant p150^glued (G59S). […] Spinal cord cultures were infected with virus at 14 DIV and the number of motor neurons was determined 2, 4, 6 or 8 days later (FIG. 4, panel a.).
(§3) We next determined if KW6002 could protect motor neurons from the toxic effects of mutant proteins. Spinal cord cultures were infected with viruses expressing wild type or mutant versions of SOD or p150^glued at 14 DIV, then treated with drug or vehicle for 4 days (FIG. 4, panel b.). […]

[3] = system: motor neurons expressing G59S p150^glued; assay: Motor neuron death from HSV-expressed mutant p150glued in spinal cord cultures; type: cell-based, rat; settings: 6 days post-infection; treatment daily or every other day
Source text: as §1, §2, §3

[4] = system: motor neurons in embryonic rat spinal cord cultures; settings: Mojsilovic-Petrovic et al., 2005; cited from earlier work
Trk = assay: Immunoblot for phosphoTrk in spinal cord cultures; type: cell-based, rat; settings: 24 hours treatment
Method: (§4) Cells were lysed in 1% NP-40 lysis buffers containing protease inhibitors, subjected to SDS-PAGE and immunoblotted as previously described (Fryer et al., 1999; Fryer et al., 2000). For immunoprecipitation, lysates from 60 mm dishes were pre-cleared by incubation with protein A beads (Santa Cruz), incubated with primary antibody (4 μg/ml)×2 hours then 50 μL of beads added and incubated overnight with gentle agitation at 4° C. Beads were pelleted, washed 5× with 10 mM Tris pH 7.4+0.5 mM EGTA+0.5 mM EDTA+0.1% NP40 before elution in 1× Laemelli sample buffer. Antibody sources: BD Transduction Labs—TrkB and MAP Kinase used at 1:500, Cell Signaling—Akt 1:1000; phosphoTrk (tyr490) 1:1000; phospho p42/44 MAP Kinase (thr 202/tyr204) 1:1000; phosphoAkt (ser473) 1:500; IGFI antibody (tyr 1131) 1:500. Upstate—adenosine A2a 1:1000. Sigma—actin 1:200. Biosource—active src (clone 28) 1:200.
(§5) We next asked about the effect of the adenosine A2 receptor antagonism on Trk signaling. Cultures of spinal cord cells (grown in the presence of a cocktail of trophic factors including 10 ng/ml BDNF) received KW6002 (1 μM), MRS1754 (50 nM) or vehicle (DMSO 0.1%) and 24 hrs. later, lysates were prepared for immunoblots for Trk and the MAP kinase downstream signaling module (FIG. 2, panel a). Immunoblots for phosphoTrk and phosphoMAPK were employed to monitor the state of activation of these proteins.
(§6) We followed up these observations by determining the effect of enprofylline on Trk signaling and determined the extent to which the resultant biochemical changes mimic the effects of direct pharmacological Trk antagonism with CEP4416. […] The effect of drug treatment on AKT was particularly marked. […] To determine the specificity of these agents, we examined their effect on Insulin-like growth factor 1 (IGF1) signaling through the IGF receptor tyrosine kinase (IGFR). […] It is unlikely that phosphodiesterase activity of enprofylline can explain these observations as increased cAMP levels enhance, not suppress, TrkB activation (Boulanger and Poo, 1999; Ji et al., 2005).

MAP kinase = assay: Immunoblot for phosphoMAPK in spinal cord cultures; type: cell-based, rat; settings: 24 hours treatment
Method: as §4, §5, §6

src-family kinases (SFK) = assay: Immunoblot for active SFKs (clone 28 antibody) in spinal cord cultures; type: cell-based, rat; settings: 24 hours treatment; listed as MRS 1754
Method: as §4
The precise mechanism by which G-protein coupled receptors trans-activate receptor tyrosine kinases is complex and to some extent receptor-subtype specific (Luttrell et al., 1999; Downward, 2003; Piiper and Zeuzem, 2004; Waters et al., 2004). […] If this pathway was operative in spinal cord neurons, then antagonism of adenosine A2a receptors might lead to reduced src activation and antagonism of SFKs might be neuro-protective. Src is negatively regulated by phosphorylation of tyrosine 529 (refers to human src sequence) and an antibody that recognizes a de-phospho epitope in this region (“clone 28”) is a reliable measure of active src and SFKs (Kawakatsu et al., 1996). We began by asking for adenosine A2a receptors and active SFKs are present in the same cells and if so, their subcellular distribution. Pure motor neurons, grown in the presence of BDNF were immunostained with a rabbit anti-adenosine A2a receptor and the clone 28 antibody. One hundred percent of motor neurons expressed both antigens and on dendrites, the immunoreactivity formed discrete fine puncta (FIG. 5a). Many, but not all, puncta were stained with both antibodies. […]

[5] = system: IGF receptor tyrosine kinase (IGFR); assay: Immunoblot for phospho-IGFR in spinal cord cultures; type: cell-based, rat; settings: 5 nM, 30 min
Method: as §4, §6

C[C@]12O[C@H](C[C@]1(O)CO)n1c3ccccc3c3c4c(c5c6ccccc6n2c5c31)CNC4=O [CEP701]
excitotoxic motor neuron death [1]: No motor neuron death occurred
excitotoxic motor neuron death ([1]; listed as CEP-701): completely blocked the loss of SMI(+) neurons

N#Cc1cc2[nH]c(=O)c(=O)[nH]c2cc1[N+](=O)[O-] [CNQX]
motor neuron survival / toxicity of G85R SOD [2]: significantly greater number of motor neurons; also recorded: completely prevented the toxicity of mutant protein expression
motor neuron survival / toxicity of G59S p150glued [3]: significantly greater number of motor neurons; also recorded: completely prevented the toxicity of mutant protein expression

CCCn1c(=O)c2[nH]c(C3CCCC3)nc2n(CCC)c1=O [DPCPX]
excitotoxic cell death in pre-treated cultures (previous observations) [4]: death occurred

O=S(=O)(NCCNC/C=C/c1ccc(Br)cc1)c1cccc2cnccc12 [H89]
% of motor neurons killed (cell death) after excitotoxic insult [1]: 40% and 53±5%

CCCn1c(=O)c2[nH]c(-c3ccc(OCC(=O)Nc4ccc(C#N)cc4)cc3)nc2n(CCC)c1=O [MRS1754]
% of motor neurons killed (cell death) after excitotoxic insult [1]: 50%
% of motor neurons killed (cell death) after excitotoxic insult ([1]; listed as MRS 1754): ~40%
abundance of phosphoTrk (Trk): indistinguishable from the vehicle control
abundance of phosphoMAPK (MAP kinase): indistinguishable from the vehicle control
abundance of active SFKs (src-family kinases (SFK)): only reduced in cultures treated with KW6002

Cc1ccc(-c2nn(C(C)(C)C)c3ncnc(N)c23)cc1 [PP1]
% motor neuron survival after excitotoxic challenge ([1]; SFK inhibition before excitotoxicity assay): 100±2%
number of motor neurons surviving excitotoxic challenge ([1]; SFK inhibition, versus LacZ or vehicle): statistically significant greater number of motor neurons
abundance of phosphoTrk (Trk): reduction in the abundance of phosphorylated Trk; also recorded: reduction in the abundance of phosphoTrk

Nc1ncnc2c1ncn2C1CCCO1 (stereo not drawn) [SQ 22536]
% of motor neurons killed (cell death) after excitotoxic insult [1]: 40% and 42±4%
basal survival of motor neurons ([1]; 4 day pre-treatment, without excitotoxic challenge): did not adversely affect the basal survival of motor neurons

Nc1nc(NCCc2ccc(O)cc2)nc2nc(-c3ccco3)nn12 [ZM241385]
excitotoxic cell death in pre-treated cultures (previous observations) [4]: no excitotoxic cell death

CCCC(=O)Nc1ncnc2c1ncn2[C@@H]1O[C@@H]2COP(=O)(O)O[C@H]2[C@H]1OC(=O)CCC [db-cAMP, dibutryl-cAMP]
% of motor neurons killed (cell death) after excitotoxic insult [1]: −2±3%
excitotoxic motor neuron death [1]: No excitotoxic cell death occured

C=C(C)[C@H]1CN[C@H](C(=O)O)[C@H]1CC(=O)O [kainic acid]
loss of motor neurons ([1]; 100 μM for 1 hour, counted 24 hours later, 14-16 DIV): ~45%

IGF1: Insulin-like growth factor 1
IGFR phosphorylation upon acute administration [5]: robust induction of phospho-IGFR; also recorded: strong increase in IGFR phosphorylation
